In patent publication US8673914B2, “Use of phosphodiesterase inhibitors for treating multidrug resistance” (St. John's University, priority 2011, dated 2014):
Like-named read-outs stand apart in the source and are kept apart here. Marks after values point to notes of the source that are not given here.

Experiments:
[1] = In vitro transport assay, membrane vesicles; format: biochemical; conditions: HEK293/pcDNA3.1 vesicles
Experimental: Transport assays were carried out using the rapid filtration method as described in Chen et al. (2003) Cancer Res. 63:4048-54. […] Reactions were stopped by the addition of 3 mL of ice-cold stop solution (0.25 M sucrose, 100 mM NaCl, and 10 mM Tris-HCl, pH 7.4). During the rapid filtration step, samples were passed through 0.22 μm GVWP filters (Millipore) presoaked in the stop solution. The filters were washed three times with 3 mL of ice-cold stop solution. Radioactivity was measured by liquid scintillation counting.

ABCG2 = ABCG2 (Homo sapiens, UniProt Q9UNQ0); assay: Photoaffinity labeling with [^125I]-IAAP (Example 2); format: binding; parameters: endogenous in cells; host or cells: MCF7/FLV1000 (MCF-7/Flv1000) crude membranes; conditions: 10 μM
Sequence of ABCG2 (Q9UNQ0 whole entry): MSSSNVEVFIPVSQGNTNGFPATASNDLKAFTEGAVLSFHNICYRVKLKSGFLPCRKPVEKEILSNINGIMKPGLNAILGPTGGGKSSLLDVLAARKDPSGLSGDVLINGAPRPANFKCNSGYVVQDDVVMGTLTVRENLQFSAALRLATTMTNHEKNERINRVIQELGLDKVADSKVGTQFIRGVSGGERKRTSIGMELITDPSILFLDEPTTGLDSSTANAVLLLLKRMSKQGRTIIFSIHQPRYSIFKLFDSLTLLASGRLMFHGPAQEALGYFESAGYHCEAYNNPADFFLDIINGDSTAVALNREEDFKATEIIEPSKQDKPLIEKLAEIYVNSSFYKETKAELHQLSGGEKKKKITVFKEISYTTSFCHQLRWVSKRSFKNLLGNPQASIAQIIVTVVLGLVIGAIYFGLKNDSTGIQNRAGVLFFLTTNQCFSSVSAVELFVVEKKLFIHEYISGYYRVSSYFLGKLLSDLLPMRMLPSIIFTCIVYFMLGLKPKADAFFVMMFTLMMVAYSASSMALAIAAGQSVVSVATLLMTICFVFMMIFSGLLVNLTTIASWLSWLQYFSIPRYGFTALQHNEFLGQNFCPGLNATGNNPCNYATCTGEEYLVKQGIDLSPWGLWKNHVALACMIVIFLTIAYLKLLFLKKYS
Experimental: The photoaffinity labeling of ABCB1 and ABCG2 with [^125I]-IAAP was conducted as described in Sauna et al., supra. The crude membranes from HIGH FIVE™ insect cells expressing ABCB1 and MCF7/FLV1000 cells expressing R482 ABCG2 (50 μg of protein) were incubated at room temperature with different concentrations of drugs in 50 mM Tris-HCl (pH 7.5) with [^125I]-IAAP (5-7 nM) for 5 min under subdued light. […] ABCB1 and ABCG2 were immunoprecipitated using BXP-21 antibodies as described in Shukla et al., supra. Both ABCB1 and ABCG2 samples were subjected to SDS-PAGE in a 7% Trisacetate NuPAGE gel, the gel was dried, and exposed to Bio-Max MR film (Eastman Kodak Co.) at −70° C. for 8 to 12 h. The radioactivity incorporated into the ABCB1 or ABCG2 band was quantified using the STORM 860 Phosphorlmager System and ImageQuaNT (Molecular Dynamics).

HEK293/pcDNA3.1 = assay: MTT cytotoxicity/reversal assay (Example 1); format: cell-based; conditions: HEK293/pcDNA3.1; +10 μM reversal agent
Experimental: (§1) The KB-C2 and KB-3-1 were kindly provided by Dr. Akiyama (Kagoshima University, Japan). HEK293-pcDNA3.1 and wild-type HEK/ABCG2 transfected cells were established by selection with G418 after transfecting HEK293 with either (1) empty pcDNA3.1 vector or (2) pcDNA3.1 vector containing full length of ABCG2 coding arginine (R) at amino acid position 482, and were then cultured in a medium with 2 mg/ml of G418 (ABCG2-482-R2 cells). Similarly, the HEK/MRP1 (ABCC1) and HEK/ABCB1 cells were generated by transfecting the HEK293 cells with either the MRP1 expression vector or the ABCB1 expression vector. All of the cell lines were grown in Dulbecco's modified Eagle's medium (DMEM) supplemented with 10% bovine serum, 100 units/ml penicillin, and […] streptomycin in a humidified incubator containing 5% CO2 at 37° C.
(§2) The MTT assay was used to assess cytotoxicity. The cultured cells were harvested with trypsin and resuspended in a final concentration of 4×10^3 cells/well for KB-3-1; 7.5×10^3 cells/well for KB-C2; and 8×10^3 for all of the other cell lines used in this study. Cells were seeded evenly in 96-well multiplates. […] After 68 h of incubation, 20 μl of the MTT solution (4 mg/ml) was added to each well, and the plate was further incubated for 4 h at 37° C., allowing viable cells to convert the yellow-colored MTT into dark-blue formazan crystals. Subsequently, the medium was discarded, and 100 μl of DMSO was added into each well to dissolve the formazan crystals, generating purple color. The absorbance was determined at 570 nm by an OPSYS Microplate Reader from DYNEX Technologies, Inc. (Chantilly, Va.). […] The degree of the reversal of multidrug resistance (MDR) was calculated by dividing the IC50 of an anticancer drug, e.g., an antineoplastic or chemotherapeutic drug (agent, compound), in a cell type in the absence of a reversal agent by the IC50 of the anticancer drug in the same cell type in the presence of the reversal agent. The IC50 values were calculated from survival curves using the Bliss method.

ABCG2-482-R2 (ABCG2) = assay: MTT cytotoxicity/reversal assay (Example 1); conditions: +10 μM reversal agent
Experimental: as §1, §2

parental cells = assay: [^3H]-mitoxantrone accumulation; format: cell-based
Experimental: (§3) After washing 3 times with ice-cold PBS, the cells were trypsinized and lysed in 10 mM lysis buffer (pH 7.4, containing 1% Triton X-100 and 0.2% SDS). Each sample was placed in scintillation fluid and radioactivity was measured in a Packard TRI-CARB 1900CA liquid scintillation analyzer from Packard Instrument Company, Inc.

KB-3-1 cells = assay: [^3H]-paclitaxel accumulation (Example 2); format: cell-based, human; conditions: parental KB-3-1
Experimental: as §3

KB-C2 = assay: MTT cytotoxicity/reversal assay (Example 2); format: cell-based, human; conditions: alone
Experimental: (§4) The ABCB1-overexpressing drug resistant cell line KB-V1 (generously provided by Dr. Gottesman, NCI, NIH) was established by a stepwise concentration increase of vinblastine in the culture medium of KB-3-1 cells and subsequently culturing these cells in medium with 1 μg/mL of vinblastine. An ABCC1-overexpressing MDR cell line, KB-CV60, was also derived from KB-3-1 cells and was maintained in medium with 1 μg/mL of cepharanthine and 60 ng/mL of vincristine. Both KB-C2 and KB-CV60 cell lines were kindly provided by Dr. Akiyama (Kagoshima University, Japan). HEK293/pcDNA3.1, ABCG2-482-R5, ABCG2-482-G2, and ABCG2-482-T7 cells were established by selection with 2 mg/mL G418 after transfecting HEK293 with either (1) empty pcDNA3.1 vector or (2) pcDNA3.1 vector containing full length ABCG2 coding either (2a) wild-type arginine (R) or mutant (2b) glycine (G) or (2c) threonine (T) at amino acid position 482, respectively. The wild-type ABCG2-overexpressing drug-resistant cell line MCF-7/Flv1000 was cultured in the medium with 1 μM of flavopiridol. […] Another G482 mutant ABCG2-overexpressing drug resistant cell line, S1-M1-80, was maintained in the medium with 80 μM of mitoxantrone. […] All the cell lines were grown as adherent monolayers in flasks with DMEM (Dulbecco's modified Eagle's medium) culture medium (Hyclone Co.) containing 10% bovine serum at 37° C. in a humidified atmosphere of 5% CO2.
(§5) Cells in 96-well plates were preincubated with or without the reversal agents for 1 h and then different concentrations of chemotherapeutic drugs were added into designated wells. After 68 h of incubation, MTT solution (4 mg/mL) was added to each well, and the plate was further incubated for 4 h, allowing viable cells to change the yellow-colored MTT into dark-blue formazan crystals. Subsequently the medium was discarded, and […] of DMSO was added into each well to dissolve the formazan crystals. The absorbance was determined at 570 nm by an OPSYS MR Microplate Reader from DYNEX Technologies, Inc.

KB-V1 = assay: MTT cytotoxicity/reversal assay (Example 2); format: cell-based, human; conditions: alone
Experimental: as §4, §5

KB-3-1 = assay: MTT cytotoxicity/reversal assay (Example 2); format: cell-based, human; conditions: alone
Experimental: as §4, §5

HEK/MRP7 = assay: MTT cytotoxicity assay (Example 4); format: cell-based; conditions: alone;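 as to fold-resistance, docetaxel: drug IC50 in HEK/MRP7 divided by IC50 in parental HEK293-pcDNA3.1 cells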;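 as to fold-resistance, vinblastine: drug IC50 in HEK/MRP7 divided by IC50 in parental HEK293-pcDNA3.1 cells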
Experimental: (§6) The MRP7 cDNA was generously provided by Dr. Gary Kruh (University of Illinois, Chicago, Ill.) and inserted into the pcDNA3.1 expression vector. […] Individual colonies were selected in medium containing G418 (1 mg/ml) and cultured for further analysis.
(§7) MTT colorimetric assay was performed to analyze the drug sensitivity as previously described (Shi et al. (2007) Cancer Res. 67:11012-20). HEK293-pcDNA3.1 and HEK/MRP7 cells were seeded into 96-well plates in triplicate at 6000 cells/well.
(§8) After drug incubation of 68 h, 20 μl MTT solution (4 mg/ml) was added into each well. […] The Bliss method was used to calculate the IC50 values according to survival curves.

[2] = MTT cytotoxicity assay (Example 4); format: cell-based; conditions: human, HEK/MRP7, alone;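 as to fold-resistance, docetaxel: drug IC50 in HEK/MRP7 divided by IC50 in parental HEK293-pcDNA3.1 cells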;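 as to fold-resistance, vinblastine: drug IC50 in HEK/MRP7 divided by IC50 in parental HEK293-pcDNA3.1 cells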
Experimental: as §6, §7, §8

HEK 293-pcDNA-3.1 = assay: MTT cytotoxicity assay (Example 4); format: cell-based
Experimental: as §6, §7, §8

Compound: COc1ccc2c3c([nH]c2c1)[C@H](C=C(C)C)N1C(=O)[C@@H]2CCCN2C(=O)[C@@H]1C3 [FTC, Fumitremorgin C]
- uptake rates of methotrexate and E217βG [1]: moderately decreased the uptake rates
- inhibition of [^125I]-IAAP photolabeling (ABCG2): about 40%
- fold reversal, SN-38 (HEK293/pcDNA3.1): (1.13)
- fold reversal, SN-38 (ABCG2-482-R2 (ABCG2)): (3.84)
- intracellular levels of [^3H]-mitoxantrone (parental cells): Neither sildenafil nor FTC affected the intracellular levels

Compound: COc1ccc(CCN(C)CCCC(C#N)(c2ccc(OC)c(OC)c2)C(C)C)cc1OC (centres unmarked) [Verapamil, verapamil]
- intracellular levels of [^3H]-paclitaxel (KB-3-1 cells): Neither sildenafil nor verapamil altered the intracellular levels

Compound: CC[C@]1(O)C[C@@H]2CN(CCc3c([nH]c4ccccc34)[C@@](C(=O)OC)(c3cc4c(cc3OC)N(C)[C@H]3[C@@](O)(C(=O)OC)[C@H](OC(C)=O)[C@]5(CC)C=CCN6CC[C@]43[C@@H]65)C2)C1 [Vinblastine, vinblastine]
- fold-resistance, vinblastine (KB-C2): (10.3)
- fold-resistance, vinblastine (KB-V1): (120.1)
- fold-resistance, vinblastine (KB-3-1): (1.0)^c
- fold-resistance, vinblastine (HEK/MRP7): (5.03)
- IC50 at 68 h ([2]; read-out: IC50 of vinblastine): 0.0563 ± 0.00461 µM
- fold-resistance, vinblastine (HEK 293-pcDNA-3.1; HEK 293-pcDNA-3.1, alone): (1.0)
- IC50 (HEK 293-pcDNA-3.1; read-out: IC50 of vinblastine): 0.0112 ± 0.00123 µM

Compound: CC(=O)O[C@@]12CO[C@@H]1C[C@H](O)[C@@]1(C)C(=O)[C@H](O)C3=C(C)[C@@H](OC(=O)[C@H](O)[C@@H](NC(=O)OC(C)(C)C)c4ccccc4)C[C@@](O)([C@@H](OC(=O)c4ccccc4)[C@H]21)C3(C)C [Docetaxel, docetaxel]
- fold-resistance, docetaxel (HEK/MRP7): (11.31)
- IC50 at 68 h ([2]; read-out: IC50 of docetaxel): 0.0648 ± 0.00519 µM
- fold-resistance, docetaxel (HEK 293-pcDNA-3.1; HEK 293-pcDNA-3.1, alone): (1.0)
- IC50 (HEK 293-pcDNA-3.1; read-out: IC50 of docetaxel): 0.00573 ± 0.00065 µM
